Measurements published in ChEMBL document CHEMBL1201862, “PubChem BioAssay data set” (2004).
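A five-concentration, 48-hour dose response in 96-well plates underlies each endpoint, interpolated linearly between surrounding concentrations. GI50 marks 50% less growth.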 Calls of active or inactive are those of the source. Rule as the data show it: active = GI50 up to about 1.1 µM and inactive = higher.

Key:
Test in all cases: NCI tumour cell line growth inhibition, 48 h
KM12 = test system: KM12
NCI-H23 = test system: NCI-H23
IGROV-1 = test system: IGROV-1
RPMI-8226 = test system: RPMI-8226
SNB-75 = test system: SNB-75
SK-MEL-28 = test system: SK-MEL-28
UO-31 = test system: UO-31
DMS-273 = test system: DMS-273
SF-539 = test system: SF-539
NCI-H522 = test system: NCI-H522
A498 = test system: A498
HL-60 = test system: HL-60
DLD-1 = test system: DLD-1
Malme-3M = test system: Malme-3M
HT-29 = test system: HT-29
HOP-62 = test system: HOP-62
SF-268 = test system: SF-268
SK-MEL-2 = test system: SK-MEL-2
HCC 2998 = test system: HCC 2998
SW-620 = test system: SW-620
OVCAR-8 = test system: OVCAR-8
HCT-116 = test system: HCT-116
ACHN = test system: ACHN
NCI-H460 = test system: NCI-H460
A549 = test system: A549
SK-MEL-5 = test system: SK-MEL-5
OVCAR-4 = test system: OVCAR-4
SNB-19 = test system: SNB-19
EKVX = test system: EKVX
U-251 = test system: U-251
SK-OV-3 = test system: SK-OV-3
COLO 205 = test system: COLO 205
UACC-62 = test system: UACC-62
DMS-114 = test system: DMS-114
HOP-18 = test system: HOP-18
M19-MEL = test system: M19-MEL
TK-10 = test system: TK-10
KM-20L2 = test system: KM-20L2
NCI-H226 = test system: NCI-H226
XF498 = test system: XF498
MOLT-4 = test system: MOLT-4
K562 = test system: K562
SN12C = test system: SN12C
CAKI-1 = test system: CAKI-1
SF-295 = test system: SF-295
LOX IMVI = test system: LOX IMVI
UACC-257 = test system: UACC-257
OVCAR-3 = test system: OVCAR-3
CCRF-CEM = test system: CCRF-CEM
HCT-15 = test system: HCT-15
SR = test system: SR
SNB-78 = test system: SNB-78
LXFL 529 = test system: LXFL 529
OVCAR-5 = test system: OVCAR-5
M14 = test system: M14
RXF 393 = test system: RXF 393
786-0 = test system: 786-0
HOP-92 = test system: HOP-92

For `CCN1CCC(O)(c2ccccc2)C(C(=O)c2ccccc2)C1` (configuration not stated), the GI50 (KM12) was 45.4 µM (inactive), the GI50 (NCI-H23) was > 53 µM (inactive) and the GI50 (IGROV-1) was > 100 µM (inactive). The GI50 (RPMI-8226) was 6.35 µM (inactive), the GI50 (SNB-75) was > 89.3 µM (inactive) and the GI50 (SK-MEL-28) was 17.9 µM (inactive). The GI50 (UO-31) was > 46.2 µM (inactive), the GI50 (DMS-273) was > 94.4 µM (inactive) and the GI50 (SF-539) was 62.5 µM (inactive). For the same compound, the GI50 (NCI-H522) was 2.62 µM (inactive), the GI50 (A498) was > 100 µM (inactive) and the GI50 (HL-60) was 19.5 µM (inactive). For the same compound, the GI50 (DLD-1) was 19.4 µM (inactive), the GI50 (Malme-3M) was 21.1 µM (inactive) and the GI50 (HT-29) was 20.4 µM (inactive). The GI50 (HOP-62) was > 100 µM (inactive), the GI50 (SF-268) was > 31.6 µM (inactive) and the GI50 (SK-MEL-2) was > 100 µM (inactive). For the same compound, the GI50 (HCC 2998) was > 100 µM (inactive), the GI50 (SW-620) was 17.6 µM (inactive) and the GI50 (OVCAR-8) was 26.4 µM (inactive). For the same compound, the GI50 (HCT-116) was 17.1 µM (inactive), the GI50 (ACHN) was 16.7 µM (inactive) and the GI50 (NCI-H460) was > 100 µM (inactive). For the same compound, the GI50 (A549) was > 67.1 µM (inactive), the GI50 (SK-MEL-5) was 33.7 µM (inactive) and the GI50 (OVCAR-4) was 18.2 µM (inactive). For the same compound, the GI50 (SNB-19) was > 100 µM (inactive), the GI50 (EKVX) was > 49.2 µM (inactive) and the GI50 (U-251) was > 100 µM (inactive). The GI50 (SK-OV-3) was > 100 µM (inactive), the GI50 (COLO 205) was 22.4 µM (inactive) and the GI50 (UACC-62) was > 45.3 µM (inactive). For the same compound, the GI50 (DMS-114) was 29.9 µM (inactive), the GI50 (HOP-18) was 14.7 µM (inactive) and the GI50 (M19-MEL) was 26.7 µM (inactive). For the same compound, the GI50 (TK-10) was 23.2 µM (inactive), the GI50 (KM-20L2) was 32 µM (inactive) and the GI50 (NCI-H226) was > 54.1 µM (inactive). For the same compound, the GI50 (XF498) was 16.3 µM (inactive), the GI50 (MOLT-4) was 21.7 µM (inactive) and the GI50 (K562) was 23.7 µM (inactive). The GI50 (SN12C) was 20.1 µM (inactive), the GI50 (CAKI-1) was 14 µM (inactive) and the GI50 (SF-295) was > 65.6 µM (inactive). For the same compound, the GI50 (LOX IMVI) was 17.4 µM (inactive), the GI50 (UACC-257) was 19.6 µM (inactive) and the GI50 (OVCAR-3) was 16.3 µM (inactive). For the same compound, the GI50 (CCRF-CEM) was 15.7 µM (inactive), the GI50 (HCT-15) was 26.9 µM and the GI50 (SR) was 20.8 µM (inactive). For the same compound, the GI50 (SNB-78) was 26.7 µM (inactive), the GI50 (LXFL 529) was 15.6 µM (inactive) and the GI50 (OVCAR-5) was 18.2 µM (inactive). For the same compound, the GI50 (M14) was 17.3 µM (inactive), the GI50 (RXF 393) was 15.5 µM (inactive) and the GI50 (786-0) was 17.1 µM (inactive). The GI50 (HOP-92) was 17.7 µM (inactive).
For `N#C/C(=C1\OC(=N)C(c2ccccc2)C1=O)c1ccccc1` (configuration not stated), the GI50 (KM12) was 48.2 µM (inactive), the GI50 (NCI-H23) was > 10 µM (inactive) and the GI50 (IGROV-1) was 30.5 µM (inactive). The GI50 (RPMI-8226) was 22.9 µM (inactive), the GI50 (SNB-75) was 28.3 µM (inactive) and the GI50 (SK-MEL-28) was 13.3 µM (inactive). For the same compound, the GI50 (UO-31) was 19.6 µM (inactive), the GI50 (DMS-273) was 49.9 µM (inactive) and the GI50 (SF-539) was > 31.6 µM (inactive). For the same compound, the GI50 (NCI-H522) was 8.81 µM (inactive), the GI50 (A498) was > 100 µM (inactive) and the GI50 (HL-60) was 23.4 µM (inactive). The GI50 (DLD-1) was 18.3 µM (inactive), the GI50 (Malme-3M) was 18.9 µM (inactive) and the GI50 (HT-29) was 22.5 µM (inactive). The GI50 (HOP-62) was > 100 µM (inactive), the GI50 (SF-268) was 48.3 µM (inactive) and the GI50 (SK-MEL-2) was > 52.2 µM (inactive). The GI50 (HCC 2998) was 90.2 µM (inactive), the GI50 (SW-620) was 23.1 µM (inactive) and the GI50 (OVCAR-8) was 27.9 µM (inactive). For the same compound, the GI50 (HCT-116) was 17.6 µM (inactive), the GI50 (ACHN) was 16.3 µM (inactive) and the GI50 (NCI-H460) was > 100 µM (inactive). The GI50 (A549) was > 100 µM (inactive), the GI50 (SK-MEL-5) was 26.9 µM (inactive) and the GI50 (OVCAR-4) was 40.1 µM (inactive). The GI50 (SNB-19) was > 100 µM (inactive), the GI50 (EKVX) was 36.5 µM (inactive) and the GI50 (U-251) was > 100 µM (inactive). For the same compound, the GI50 (SK-OV-3) was > 100 µM (inactive), the GI50 (COLO 205) was 22.6 µM (inactive) and the GI50 (UACC-62) was 22.2 µM (inactive). The GI50 (DMS-114) was 29.5 µM (inactive), the GI50 (HOP-18) was 28.6 µM (inactive) and the GI50 (M19-MEL) was 24 µM (inactive). The GI50 (TK-10) was 29.7 µM (inactive), the GI50 (KM-20L2) was 98.6 µM (inactive) and the GI50 (NCI-H226) was > 64.3 µM (inactive). For the same compound, the GI50 (XF498) was 16.9 µM (inactive), the GI50 (MOLT-4) was 18.7 µM (inactive) and the GI50 (K562) was 22.6 µM (inactive). The GI50 (SN12C) was 35 µM (inactive), the GI50 (CAKI-1) was 30.6 µM (inactive) and the GI50 (SF-295) was > 100 µM (inactive). For the same compound, the GI50 (LOX IMVI) was 33.6 µM (inactive), the GI50 (UACC-257) was 23 µM (inactive) and the GI50 (OVCAR-3) was 28.1 µM (inactive). The GI50 (CCRF-CEM) was 15.9 µM (inactive), the GI50 (HCT-15) was 22.1 µM and the GI50 (SNB-78) was > 77.1 µM (inactive). For the same compound, the GI50 (LXFL 529) was 17.8 µM (inactive), the GI50 (OVCAR-5) was > 100 µM (inactive) and the GI50 (M14) was 24.4 µM (inactive). The GI50 (RXF 393) was 17.9 µM (inactive), the GI50 (786-0) was 25 µM (inactive) and the GI50 (HOP-92) was 33.8 µM (inactive).
`CC(C)(C)[Si](C)(C)O/N=C\c1cccc(O[Si](C)(C)C(C)(C)C)c1` was tested, and the GI50 (KM12) was 18 µM (inactive), the GI50 (IGROV-1) was 18.6 µM (inactive) and the GI50 (RPMI-8226) was 17 µM (inactive). For the same compound, the GI50 (SNB-75) was 16.7 µM (inactive), the GI50 (UO-31) was 15.6 µM (inactive) and the GI50 (DMS-273) was 17.7 µM (inactive). The GI50 (SF-539) was 21.9 µM (inactive), the GI50 (HL-60) was 18.3 µM (inactive) and the GI50 (DLD-1) was 17.8 µM (inactive). For the same compound, the GI50 (Malme-3M) was 42.4 µM (inactive), the GI50 (HT-29) was 16.5 µM (inactive) and the GI50 (HOP-62) was 22.8 µM (inactive). For the same compound, the GI50 (SF-268) was 18.3 µM (inactive), the GI50 (SK-MEL-2) was 17.9 µM (inactive) and the GI50 (HCC 2998) was 18.3 µM (inactive). For the same compound, the GI50 (SW-620) was 18.5 µM (inactive), the GI50 (OVCAR-8) was 20 µM (inactive) and the GI50 (HCT-116) was 18.6 µM (inactive). The GI50 (ACHN) was 17.9 µM (inactive), the GI50 (NCI-H460) was 17.7 µM (inactive) and the GI50 (A549) was 17.8 µM (inactive). For the same compound, the GI50 (SK-MEL-5) was 17.8 µM (inactive), the GI50 (OVCAR-4) was 16.1 µM (inactive) and the GI50 (SNB-19) was 20.7 µM (inactive). For the same compound, the GI50 (EKVX) was 18.5 µM (inactive), the GI50 (U-251) was 17.5 µM (inactive) and the GI50 (SK-OV-3) was 21 µM (inactive). For the same compound, the GI50 (COLO 205) was 17.8 µM (inactive), the GI50 (UACC-62) was 16.7 µM (inactive) and the GI50 (DMS-114) was 18.8 µM (inactive). For the same compound, the GI50 (HOP-18) was 22.5 µM (inactive), the GI50 (M19-MEL) was 17.8 µM (inactive) and the GI50 (TK-10) was 24.5 µM (inactive). For the same compound, the GI50 (KM-20L2) was 20.1 µM (inactive), the GI50 (XF498) was 18.5 µM (inactive) and the GI50 (MOLT-4) was 18.1 µM (inactive). The GI50 (K562) was 18.1 µM (inactive), the GI50 (SN12C) was 19.9 µM (inactive) and the GI50 (CAKI-1) was 24.8 µM (inactive). For the same compound, the GI50 (SF-295) was 18 µM (inactive), the GI50 (LOX IMVI) was 19.2 µM (inactive) and the GI50 (UACC-257) was 21.9 µM (inactive). For the same compound, the GI50 (OVCAR-3) was 16.2 µM (inactive), the GI50 (CCRF-CEM) was 19.3 µM (inactive) and the GI50 (HCT-15) was 19.2 µM. For the same compound, the GI50 (SNB-78) was 15.7 µM (inactive), the GI50 (LXFL 529) was 15.7 µM (inactive) and the GI50 (OVCAR-5) was 20.1 µM (inactive). The GI50 (M14) was 16 µM (inactive), the GI50 (RXF 393) was 19.6 µM (inactive) and the GI50 (786-0) was 19.2 µM (inactive). For the same compound, the GI50 (HOP-92) was 15.5 µM (inactive).
